Test results from the NIST ThermoML archive (doi:10.1016/j.jct.2017.06.001).
Numbers after ± are expanded uncertainties.

Test: xn = mol fraction of the nth substance listed
Conditions: 100 kPa, Liquid; for speed of sound: Frequency=5 MHz, Pulse-echo method; for mass density: Vibrating tube method

OCCCCCO [1,5-pentanediol] + O
Conditions | mass density [kg/m3] | speed of sound [m/s]
298.15 K, x1 = 0.005 | 996.7 ± 0.53 | –
298.15 K, x1 = 0.0101 | 996.7 ± 1 | –
298.15 K, x1 = 0.0196 | 997.13 ± 1 | –
298.15 K, x1 = 0.0251 | 997.61 ± 1 | –
298.15 K, x1 = 0.0304 | 998.17 ± 1 | –
298.15 K, x1 = 0.05 | 999.75 ± 1 | –
298.15 K, x1 = 0.0769 | 1001.11 ± 1 | –
298.15 K, x1 = 0.1002 | 1002.09 ± 1.1 | –
298.15 K, x1 = 0.1282 | – | 1678.7 ± 1.2
298.15 K, x1 = 0.1298 | – | 1679.1 ± 1.2
298.15 K, x1 = 0.1332 | – | 1680 ± 1.2
298.15 K, x1 = 0.1353 | – | 1680.5 ± 1.2
298.15 K, x1 = 0.1358 | – | 1680.6 ± 1.2
298.15 K, x1 = 0.1417 | – | 1681.8 ± 1.3
298.15 K, x1 = 0.1438 | 1002.72 ± 1.1 | –
298.15 K, x1 = 0.1444 | – | 1682.3 ± 1.3
298.15 K, x1 = 0.1473 | – | 1682.8 ± 1.3
298.15 K, x1 = 0.1535 | – | 1683.7 ± 1.3
298.15 K, x1 = 0.1536 | – | 1683.7 ± 1.3
298.15 K, x1 = 0.1588 | – | 1684.3 ± 1.3
298.15 K, x1 = 0.1603 | – | 1684.5 ± 1.3
298.15 K, x1 = 0.1616 | – | 1684.6 ± 1.3
298.15 K, x1 = 0.1649 | – | 1684.9 ± 1.3
298.15 K, x1 = 0.1676 | – | 1685.1 ± 1.3
298.15 K, x1 = 0.1771 | – | 1685.7 ± 1.3
298.15 K, x1 = 0.1845 | 1002.56 ± 1.1 | –
298.15 K, x1 = 0.1944 | – | 1686.1 ± 1.3
298.15 K, x1 = 0.2114 | – | 1686 ± 1.3
298.15 K, x1 = 0.2309 | – | 1685.4 ± 1.3
298.15 K, x1 = 0.247 | – | 1684.6 ± 1.3
298.15 K, x1 = 0.2503 | 1001.62 ± 1.2 | –
298.15 K, x1 = 0.2649 | – | 1683.5 ± 1.4
298.15 K, x1 = 0.2807 | – | 1682.5 ± 1.4
298.15 K, x1 = 0.2987 | – | 1681.1 ± 1.4
298.15 K, x1 = 0.3 | 1000.58 ± 1.2 | –
298.15 K, x1 = 0.3178 | – | 1679.6 ± 1.4
298.15 K, x1 = 0.3343 | 999.9 ± 1.3 | –
298.15 K, x1 = 0.3356 | – | 1678 ± 1.4
298.15 K, x1 = 0.3619 | – | 1675.6 ± 1.4
298.15 K, x1 = 0.38 | – | 1673.8 ± 1.5
298.15 K, x1 = 0.4015 | – | 1671.6 ± 1.5
298.15 K, x1 = 0.4171 | 998.14 ± 1.4 | –
298.15 K, x1 = 0.4247 | – | 1669.1 ± 1.5
298.15 K, x1 = 0.4487 | – | 1666.4 ± 1.5
298.15 K, x1 = 0.454 | 997.25 ± 1.4 | –
298.15 K, x1 = 0.4652 | – | 1664.4 ± 1.6
298.15 K, x1 = 0.4828 | – | 1662.2 ± 1.6
298.15 K, x1 = 0.4985 | – | 1660.2 ± 1.6
298.15 K, x1 = 0.5003 | 996.2 ± 1.5 | –
298.15 K, x1 = 0.5142 | – | 1658.1 ± 1.6
298.15 K, x1 = 0.5304 | – | 1656 ± 1.6
298.15 K, x1 = 0.5362 | 995.4 ± 1.5 | –
298.15 K, x1 = 0.5465 | – | 1653.8 ± 1.7
298.15 K, x1 = 0.5643 | – | 1651.3 ± 1.7
298.15 K, x1 = 0.5819 | – | 1648.8 ± 1.7
298.15 K, x1 = 0.5991 | – | 1646.4 ± 1.7
298.15 K, x1 = 0.6177 | 993.8 ± 1.7 | –
298.15 K, x1 = 0.6187 | – | 1643.6 ± 1.8
298.15 K, x1 = 0.6363 | – | 1641.1 ± 1.8
298.15 K, x1 = 0.6478 | 993.2 ± 1.7 | –
298.15 K, x1 = 0.6547 | – | 1638.5 ± 1.8
298.15 K, x1 = 0.6726 | – | 1635.9 ± 1.8
298.15 K, x1 = 0.6904 | – | 1633.4 ± 1.9
298.15 K, x1 = 0.7025 | 992.2 ± 1.8 | –
298.15 K, x1 = 0.7097 | – | 1630.7 ± 1.9
298.15 K, x1 = 0.729 | – | 1628 ± 1.9
298.15 K, x1 = 0.7504 | 991.4 ± 1.9 | –
298.15 K, x1 = 0.7505 | – | 1625.1 ± 1.9
298.15 K, x1 = 0.7712 | – | 1622.3 ± 2
298.15 K, x1 = 0.7919 | – | 1619.6 ± 2
298.15 K, x1 = 0.7927 | 990.6 ± 2 | –
298.15 K, x1 = 0.8118 | – | 1617 ± 2
298.15 K, x1 = 0.8321 | – | 1614.5 ± 2
298.15 K, x1 = 0.8523 | – | 1612 ± 2.1
298.15 K, x1 = 0.8605 | 989.3 ± 2.1 | –
298.15 K, x1 = 0.8751 | – | 1609.2 ± 2.1
298.15 K, x1 = 0.8978 | – | 1606.4 ± 2.1
298.15 K, x1 = 0.9004 | 988.6 ± 2.2 | –
298.15 K, x1 = 0.9201 | – | 1603.7 ± 2.2
298.15 K, x1 = 0.9427 | – | 1600.9 ± 2.2
298.15 K, x1 = 0.9496 | 987.5 ± 2.3 | –
298.15 K, x1 = 0.9712 | – | 1597.4 ± 2.3
298.15 K, x1 = 0.9832 | – | 1595.9 ± 2.3
298.15 K, x1 = 0.993 | – | 1594.7 ± 2.3
298.15 K, x1 = 1 | 986.5 ± 2.1 | 1593.8 ± 2.3
303.15 K, x1 = 0.0002 | – | 1510.1 ± 1.1
303.15 K, x1 = 0.0005 | – | 1510.9 ± 1.1
303.15 K, x1 = 0.0007 | – | 1511.8 ± 1.1
303.15 K, x1 = 0.0011 | – | 1513 ± 1.1
303.15 K, x1 = 0.0014 | – | 1514.2 ± 1.1
303.15 K, x1 = 0.0019 | – | 1515.5 ± 1.1
303.15 K, x1 = 0.0023 | – | 1517.1 ± 1.1
303.15 K, x1 = 0.0028 | – | 1518.5 ± 1.1
303.15 K, x1 = 0.0033 | – | 1520.2 ± 1.1
303.15 K, x1 = 0.0038 | – | 1521.9 ± 1.2
303.15 K, x1 = 0.0045 | – | 1524.1 ± 1.2
303.15 K, x1 = 0.0052 | – | 1526.2 ± 1.2
303.15 K, x1 = 0.006 | – | 1528.5 ± 1.2
303.15 K, x1 = 0.0067 | – | 1530.9 ± 1.2
303.15 K, x1 = 0.0076 | – | 1533.3 ± 1.2
303.15 K, x1 = 0.0084 | – | 1535.8 ± 1.2
303.15 K, x1 = 0.0093 | – | 1538.3 ± 1.2
303.15 K, x1 = 0.0102 | – | 1540.9 ± 1.2
303.15 K, x1 = 0.0111 | – | 1543.4 ± 1.2
303.15 K, x1 = 0.0121 | – | 1546.1 ± 1.2
303.15 K, x1 = 0.0131 | – | 1549 ± 1.2
303.15 K, x1 = 0.0143 | – | 1552 ± 1.2
303.15 K, x1 = 0.0152 | – | 1554.6 ± 1.2
303.15 K, x1 = 0.0164 | – | 1557.6 ± 1.2
303.15 K, x1 = 0.0176 | – | 1560.4 ± 1.2
303.15 K, x1 = 0.0187 | – | 1563.2 ± 1.2
303.15 K, x1 = 0.0198 | – | 1565.8 ± 1.2
303.15 K, x1 = 0.0211 | – | 1568.8 ± 1.2
303.15 K, x1 = 0.0224 | – | 1571.8 ± 1.2
303.15 K, x1 = 0.0238 | – | 1575 ± 1.2
303.15 K, x1 = 0.025 | – | 1577.6 ± 1.2
303.15 K, x1 = 0.0263 | – | 1580.4 ± 1.2
303.15 K, x1 = 0.0274 | – | 1582.8 ± 1.2
303.15 K, x1 = 0.0286 | – | 1585.1 ± 1.2
303.15 K, x1 = 0.0298 | – | 1587.5 ± 1.2
303.15 K, x1 = 0.0311 | – | 1590.1 ± 1.2
303.15 K, x1 = 0.0323 | – | 1592.4 ± 1.2
303.15 K, x1 = 0.0336 | – | 1594.7 ± 1.2
303.15 K, x1 = 0.035 | – | 1597.4 ± 1.2
303.15 K, x1 = 0.0363 | – | 1599.7 ± 1.2
303.15 K, x1 = 0.0378 | – | 1602.2 ± 1.2
303.15 K, x1 = 0.0396 | – | 1605.2 ± 1.2
303.15 K, x1 = 0.0417 | – | 1608.5 ± 1.2
303.15 K, x1 = 0.0431 | – | 1610.7 ± 1.2
303.15 K, x1 = 0.0455 | – | 1614.4 ± 1.2
303.15 K, x1 = 0.0471 | – | 1616.7 ± 1.2
303.15 K, x1 = 0.0489 | – | 1619.2 ± 1.2
303.15 K, x1 = 0.0504 | – | 1621.1 ± 1.2
303.15 K, x1 = 0.0519 | – | 1623.1 ± 1.2
303.15 K, x1 = 0.0541 | – | 1625.9 ± 1.2
303.15 K, x1 = 0.0565 | – | 1628.8 ± 1.2
303.15 K, x1 = 0.0594 | – | 1632.1 ± 1.2
303.15 K, x1 = 0.0615 | – | 1634.4 ± 1.2
303.15 K, x1 = 0.0646 | – | 1637.6 ± 1.2
303.15 K, x1 = 0.0673 | – | 1640.2 ± 1.2
303.15 K, x1 = 0.0706 | – | 1643.2 ± 1.2
303.15 K, x1 = 0.0746 | – | 1646.6 ± 1.2
303.15 K, x1 = 0.0782 | – | 1649.5 ± 1.2
303.15 K, x1 = 0.0815 | – | 1651.8 ± 1.2
303.15 K, x1 = 0.0842 | – | 1653.7 ± 1.2
303.15 K, x1 = 0.0876 | – | 1655.8 ± 1.2
303.15 K, x1 = 0.0913 | – | 1658 ± 1.2
303.15 K, x1 = 0.0937 | – | 1659.3 ± 1.2
303.15 K, x1 = 0.0967 | – | 1660.8 ± 1.2
303.15 K, x1 = 0.0996 | – | 1662.2 ± 1.2
303.15 K, x1 = 0.1022 | – | 1663.4 ± 1.2
303.15 K, x1 = 0.1053 | – | 1664.7 ± 1.2
303.15 K, x1 = 0.1078 | – | 1665.7 ± 1.2
303.15 K, x1 = 0.1089 | – | 1666.1 ± 1.2
303.15 K, x1 = 0.1114 | – | 1667 ± 1.2
303.15 K, x1 = 0.1126 | – | 1667.4 ± 1.2
303.15 K, x1 = 0.1153 | – | 1668.3 ± 1.2
